“Also recorded” adds a separate entry of the source. Like-named read-outs stand apart in the source and are kept apart here.
Key:
[1] = test system: p47^phox phosphorylation at Ser-208; experiment: Western analysis of p47^phox Ser-208 phosphorylation in fMLP-stimulated neutrophils; format: cell-based; conditions: fMLP (1 μM) stimulated mouse neutrophils
Method: Mouse bone marrow neutrophils were isolated from long bones. After lysis of red blood cells (RBCs) with ACK buffer (155 mM NH4Cl, 10 mM KHCO3 and 127 μM EDTA), bone marrow cells were separated on a discontinuous Percoll gradient composed of 81%, 62%, and 45% Percoll. Neutrophils were collected at the interphase between 81% and 62% Percoll, washed in HBSS, and used for assays.

LPS-induced ALI = experiment: LPS-induced acute lung injury mouse model; format: in vivo
[2] = test system: lung transplantation-induced injury; experiment: Pilot clinical study in paired single lung transplantation recipients; format: in vivo, human
Description: These represent all of the patients who were eligible for single LT and consented for enrollment into the study between Mar. 1, 2018 and Aug. 31, 2018. […] The baseline characteristics, surgical information, medical records during their ICU stay, as well as ventilator parameters, arterial blood gas analysis, and chest X-ray results within 5 days after LT were collected. All of the five donors were enrolled in a voluntary organ donation program and died of accident or disease.
The chest X-ray scores were obtained in the following manner: the heart field was regarded as the center, and the lung field was divided into four quadrants. Non-opacified regions, 0 points; opacified regions limited to 1/4 lung area, 1 point; limited to 2/4 lung area, 2 points; limited to 3/4 lung area, 3 points; in all lung fields, 4 points. Scores were independently collected by a clinician and a radiologist who were blinded for the treatment, and the average was used. If the difference between the two evaluators was greater than 1 point, discussion was conducted to reach a consensus. Hypoxemia index=PaO2/FiO2, measured by arterial blood gas analysis.
In the pilot clinical study, the linear mixed model repeated measures analysis was performed to compare the hypoxemia and X-ray scores over time between two groups accounting for both within-subject correlation and correlation of paired recipients. Time by group interaction was included in the model to examine the difference in trajectory of outcomes between two groups. Linear contrast was used to compare difference at each post-transplant day, and overall mean difference between groups as well. The analysis was conducted with SAS version 9.4 (SAS Inc., Cary, N.C.). The significance was set as p<0.05, two-sided.

[3] = test system: murine hepatitis virus strain 1 (MHV-1); experiment: Pazopanib IV in the MHV-1 mouse model; format: in vivo, A/J mice
Method: The murine hepatitis virus strain 1 (MHV-1) model was adopted for the pharmacology study. All MHV-1-infected A/J mice developed progressive interstitial edema, neutrophil/macrophage infiltrates, and hyaline membranes, leading to the death of all mice. Two studies have been completed to date. In the first one, mice were administered a 3-dose regimen of the study intervention at 6, 21, and 32 hours after virus inoculation. In the second, mice were administered a 2-dose regimen at 24 and 33 hours after inoculation.
A/J mice, 8 to 10 weeks old, were anaesthetized by Ketamine/Xylazine (100 and 10 mg/kg) and were kept under anesthesia during the whole procedure using Ketamine/Xylazine. After being deeply anesthetized (assessed by applying a noxious stimulus, e.g., toe pinch, and observing no reflex response and no change in either the rate or character of respiration), mice received an intranasal inoculation of 5000 PFU MHV-1 in 20 μL Dulbecco's modified Eagle's medium. After the administration, the mice were monitored until their breathing gradually returned to normal. Then the mice were returned to the recovery cage on the heating pad and monitored for their anesthesia status. […] The green fluorescence of BAL was measured by the plate reader. BAL fluorescence intensities from pazopanib-treated mice were normalized to the intensities from vehicle-control-treated mice wherein higher intensity corresponds to greater permeability.
A/J mice, 8-10 weeks old, were anaesthetized by Ketamine/Xylazine (100 and 10 mg/kg) and were kept under anesthesia during the whole procedure using Ketamine/Xylazine. After being deeply anesthetized (assessed by applying a noxious stimulus, e.g., toe pinch, and observing no reflex response and no change in either the rate or character of respiration), mice received an intranasal inoculation of 6000 PFU MHV-1 in 20 μL Dulbecco's modified Eagle's medium. After the administration, the mice were monitored until their breathing gradually returned to normal. Then the mice were returned to the recovery cage on the heating pad and monitored for their anesthesia status. […]

[4] = cited from earlier work; for AUC / Cmax: human
[5] = 800 mg orally once daily in cancer patients; cited from earlier work
in vivo [6] = conditions: rat, iv; for AUC(0-inf) / Cmax: 10 mg/kg/day
in vivo [7] = conditions: monkey, iv; for AUC(0-inf) / Cmax: 10 mg/kg/day
[8] = therapeutic modality, intranasally post injury induction
[9] = IV administration 5 mg/subject (N=7)
[10] = oral, reported with bioavailability

SMILES: Cc1ccc(Nc2nccc(N(C)c3ccc4c(C)n(C)nc4c3)n2)cc1S(N)(=O)=O [pazopanib, 5-((4-((2,3-dimethyl-2H-indazol-6-yl)(methyl)amino)pyrimidin-2-yl)amino)-2-methylbenzenesulfonamide]
- p47^phox phosphorylation at Ser-208 in neutrophils [1]: inhibit p47^phox phosphorylation at Ser-208; also recorded: inhibits phosphorylation of Ser-208 of p47^phox
- mortality (LPS-induced ALI; prophylactic, orally prior to injury): reduced
- mortality (LPS-induced ALI; [8]): significant reductions; also recorded: reduces mortality
- perivascular interstitial edema (LPS-induced ALI; [8]): significant reductions
- X-ray opacity score, difference treatment vs control group ([2]; first day, pazopanib 200 mg oral before surgery): 0.6
- X-ray opacity score, difference treatment vs control group ([2]; last day, pazopanib 200 mg oral before surgery): 0.7
- pulmonary edema ([2]; lung transplantation-induced injury): significantly reduced pulmonary edema
- X-ray score lower than control group, on average ([2]; overall mean, pazopanib 200 mg oral before surgery): 0.5 point
- projected clinical efficacious dose ([3]; assuming 70 kg human): approximately 16.8 mg
- human equivalent dose of efficacious dose ([3]; from 3 mg/kg in mouse): 0.24 mg/kg
- efficacious dose ([3]; mouse coronavirus-induced lung injury model): approximately 3 mg/kg
- margin of safety based on AUC values (2-week rat and monkey studies): < 10 fold
- safety margin based on Cmax (female monkeys): 23 fold
- safety margin based on Cmax (male monkeys): 25 fold
- HED for 70 kg human (monkey, 2-week study): 224 mg
- Margin of safety (monkey, 5 days, IV 20 minute infusion, clinical dose 20 mg/day or 0.29 mg/kg): 33.1X
- t1/2 (monkeys): a few hours
- AUC [4, 9]: 20.4 µg·h/mL
- Cmax [4, 9]: 0.848 µg/mL
- AUC [4, 10]: 806 µg·h/mL
- Cmax [4, 10]: 43.9 µg/mL
- half-life (t1/2) ([4]; in man): 27.5 h
- tolerability [5]: well-tolerated
- AUC(0-inf) (in vivo [6]; female): 276 µg·h/mL
- Cmax (in vivo [6]; female): 47 µg/mL
- AUC(0-inf) (in vivo [6]; male): 278 µg·h/mL
- Cmax (in vivo [6]; male): 55 µg/mL
- NOAEL at 2 weeks (in vivo [6]): 10 mg/kg/day
- NOAEL at 14 days (in vivo [6]): 10 mg/kg
- AUC(0-inf) (in vivo [7]; female): 167 µg·h/mL
- Cmax (in vivo [7]; female): 80 µg/mL
- AUC(0-inf) (in vivo [7]; male): 143 µg·h/mL
- Cmax (in vivo [7]; male): 85 µg/mL
- NOAEL at 2 weeks (in vivo [7]; NOAEL (no observed adverse effect level), monkeys, 2-week GLP IV infusion (20-minute)): 10 mg/kg/day
- NOAEL at 5 days (in vivo [7]; NOAEL, 5 days, IV 20 minute infusion): 30 mg/kg
- NOAEL at 14 days (in vivo [7]; NOAEL, 14 days, IV 20 minute infusion): 10 mg/kg

Reference: patent publication US20230026808A1, “COMPOUNDS, COMPOSITIONS, AND METHODS FOR TREATING ISCHEMIA-REPERFUSION INJURY AND/OR LUNG INJURY” (YALE UNIVERSITY, priority 2019, published 2023)
